In brackets after ≈: the same amount, converted by molar mass.
What was measured:
C. albicans ATCC 14053 [1] = assay: MIC microdilution susceptibility testing, C. albicans in RPMI; assay type: cell-based, Candida albicans; conditions: RPMI medium pH 6.9, 35-37° C., 24-48 h, average of three experiments; for MIC: Candida albicans, ATCC14053, read-out: MIC C. albicans ATCC 14053, RPMI
Procedure: (§1) Microorganisnis. […] Stock cultures were kept on Sabouraud dextrose agar (SDA; Becton-Dickinson and Co., Sparks, Md.). Subcultures were prepared on SDA at 35-37° C. Suspension cultures were prepared by inoculation of single colonies in 7 ml of normal saline solution.
(§2) Test compounds were dissolved in DMSO (0.56 mg/ml) and stored at 0° C. Working dilutions were made in RPMI or SDB medium. […] The final maximum concentration of DMSO in the assays was 5% (v/v).
(§3) Microdilutions for control experiments with C. albicans, A. niger, and C. neoformans were the modified method of National Committee for Clinical Laboratory Standards (NCCLS) method as described by Galgiani and by the more recent NCCLS M27-A microdilution methods as described previously. Galgiani, J. N. Antimicrob. Agents Chemother. […] Reference method for broth dilution antifungal susceptibility testing for yeasts. Approval standard. […] 9; C. arballeira, N. M., et al. Arch. Pharm.-Pharm. […] Dilutions were prepared in 0.1 ml of RPMI or SDB; the inocula were either 10^4 C. albicans or C. neoformans cells or A. niger spores. The tubes were incubated for 24-48 h at 36±1° C., and turbidity was read visually.

C. albicans ATCC 14053 [2] = assay: MIC microdilution susceptibility testing, C. albicans in SDB; assay type: cell-based, Candida albicans; conditions: for MIC: Candida albicans, ATCC14053, pH 5.6, SDB medium pH 5.6, 35-37° C.; for MIC / MIC C. albicans ATCC 14053, SDB: 24-48 h, average of three experiments; for fold more active than FLC against C. albicans in SDB: MIC ratio to FLC; for MIC C. albicans ATCC 14053, SDB: SDB medium pH 5.6, 35-37° C.; for fold less antifungal activity against C. albicans in SDB than in RPMI: SDB versus RPMI
Procedure: as §1, §2, §3

C. albicans ATCC 14053 [3] = assay: Interaction studies (FIC index) against C. albicans in SDB; assay type: cell-based, Candida albicans; conditions: for FIC index: mixed with FLC, C. albicans ATCC 14053, SDB
Description: . Fractional Inhibitory Concentration (FIC) index [FICindex=FICA+FICB] calculation was used to determine synergism between different components of the synthesized compounds while administered separately, where FICA or FICB equals to MIC of compounds A or B in combination divided by MIC of drug A or B alone. If the FIC index is ≦0.5, the combination is synergistic. […]

C. neoformans ATCC 66031 = assay: MIC microdilution susceptibility testing, C. neoformans in SDB; assay type: cell-based, Cryptococcus neoformans; conditions: SDB medium, 35-37° C., 24-48 h, average of three experiments; for MIC: Cryptococcus neoformans, ATCC66031
Procedure: as §1, §2, §3

A. niger ATCC 16404 = assay: MIC microdilution susceptibility testing, A. niger in SDB; assay type: cell-based, Aspergillus niger; conditions: for fold more potent than FLC against A. niger: MIC ratio to FLC, SDB
Procedure: as §1, §2, §3

[4] = SDB medium, 35-37° C., 24-48 h, average of three experiments

Structure (SMILES) | MIC (C. albicans ATCC 14053 [1]) [µg/mL] | MIC (C. albicans ATCC 14053 [2]) [µg/mL] | FIC index (C. albicans ATCC 14053 [3]) | fold less antifungal inhibition than 1g used alone (C. albicans ATCC 14053 [3]; mixture with FLC, C. albicans, SDB) | MIC (C. neoformans ATCC 66031) [µg/mL] | MIC (A. niger ATCC 16404; Aspergillus niger, ATCC16404, SDB medium, 35-37° C., 24-48 h, average of three experiments) [µg/mL] | fold more potent than FLC against A. niger (A. niger ATCC 16404) | MIC A. niger ATCC 16404, SDB (A. niger ATCC 16404; [4]) [µg/mL] | fold more active than FLC against C. albicans in SDB (C. albicans ATCC 14053 [2]) | MIC C. albicans ATCC 14053, SDB (C. albicans ATCC 14053 [2]) [µg/mL] | fold less antifungal activity against C. albicans in SDB than in RPMI (C. albicans ATCC 14053 [2]) [fold] | MIC C. neoformans ATCC 66031, SDB (C. neoformans ATCC 66031) [µg/mL] | MIC C. albicans ATCC 14053, RPMI (C. albicans ATCC 14053 [1]) [µg/mL]
CCCCCCC(Br)C(=O)O (stereo not drawn) [2-Bromooctanoic acid, reference compound] | 865 (≈ 3880 µM) | 865 (≈ 3880 µM) | 0.30 | approximately 2 fold | 433 (≈ 1940 µM) | – | – | – | – | – | – | – | –
O=C(O)CCCCCCCCCCBr [11-Bromoundecanoic acid, reference compound] | 371 (≈ 1400 µM) | 185 (≈ 698 µM) | 0.52 | – | 23 (≈ 86.7 µM) | 93 (≈ 351 µM) | – | – | – | – | – | – | –
CCCCCCC(Br)C(=O)OC(Cn1cncn1)(Cn1cncn1)c1ccc(F)cc1F (stereo not drawn) [Compound 1g, O-2-Bromooctanoylfluconazole] | – | – | 1.05 | – | – | – | at least 5.2 fold | 111 (≈ 217 µM) | at least 40 fold | 111 (≈ 217 µM) | 8 | 14 (≈ 27.4 µM) | –
O=C(CCCCCCCCCCBr)OC(Cn1cncn1)(Cn1cncn1)c1ccc(F)cc1F [Compound 1j, O-11-Bromoundecanoylfluconazole] | – | – | 1.04 | – | – | – | ≥ 1.5 fold | 395 (≈ 714 µM) | ≥ 22 fold | 198 (≈ 358 µM) | 17 | – | 12 (≈ 21.7 µM)
